Measurements published in patent EP3860599B1, “(+)-ALPHA-DIHYDROTETRABENAZINE DOSAGE REGIMEN FOR TREATING MOVEMENT DISORDERS” (Adeptio Pharmaceuticals Limited, priority 2018, dated 2020).
Where two headings read alike, the source gives them in different places.

Target: T1, VMAT2 (Homo sapiens, UniProt Q05940)
T1 construct: from tissue
Assay: % VMAT2 blocking in caudate and putamen by PET scan 6-7 hours after oral dosing, Example 1B
Assay type: in vivo
Settings: for receptor occupancy at 7.5 mg: po, 7.5 mg oral, PET scan 6-7 hours after administration
Source text: Complete blocking of VMAT2 is considered undesirable as this can lead to unwanted side effects, such as Parkinsonism. […] The levels of VMAT2 blocking can be determined by competitive binding studies using Positron Emission Tomography (PET). By co-administering a radioactive ligand with the compound of interest at various concentrations, the proportion of binding sites occupied can be determined (see for example, Matthews et al., "Positron emission tomography molecular imaging for drug development", Br. J. Clin. Pharmacol., 73:2, 175-186).
Volunteers 1 and 2 were the same as volunteers 1 and 2 in Example 1A described above. […] Blood sample were taken from all volunteers at 2, 4, 6 and 7 hours after drug administration. In addition, in all volunteers PET scans were initiated at 6 hours after drug administration and these were stopped at 7 hours after drug administration.

T1 sequence (Q05940 whole entry): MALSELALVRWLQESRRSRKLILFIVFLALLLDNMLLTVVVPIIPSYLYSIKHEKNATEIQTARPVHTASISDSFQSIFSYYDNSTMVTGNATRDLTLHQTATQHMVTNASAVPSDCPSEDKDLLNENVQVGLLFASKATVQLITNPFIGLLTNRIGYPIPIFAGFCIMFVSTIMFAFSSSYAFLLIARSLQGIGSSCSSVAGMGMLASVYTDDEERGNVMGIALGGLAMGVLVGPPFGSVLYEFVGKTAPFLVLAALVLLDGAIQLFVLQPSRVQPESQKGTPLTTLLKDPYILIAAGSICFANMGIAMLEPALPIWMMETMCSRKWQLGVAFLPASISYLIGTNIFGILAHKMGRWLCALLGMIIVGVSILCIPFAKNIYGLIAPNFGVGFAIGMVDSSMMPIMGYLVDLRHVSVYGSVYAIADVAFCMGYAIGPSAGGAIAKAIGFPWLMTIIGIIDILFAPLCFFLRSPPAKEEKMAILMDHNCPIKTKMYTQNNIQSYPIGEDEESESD

COc1cc2c(cc1OC)[C@H]1C[C@@H](O)[C@H](CC(C)C)CN1CC2 [(+)-α-dihydrotetrabenazine, (R,R,R)-3-isobutyl-9,10-dimethyloxy-1,3,4,5,7,11b-hexahydro-2H-pyrido[2,1-a]isoquinolin-2-ol]
% VMAT2 blocking (after 6 hours following administration of 7.5mg): greater than 30% | difference between the %VMAT2 blocking levels in the caudate and putamen regions of the striatum (each subject, 7.5 mg): No significant difference | receptor occupancy at 7.5 mg (Example 1B subject 1 (112 kg), read-out: %VMAT2 Occupancy Caudate): 38% | receptor occupancy at 7.5 mg (Example 1B subject 1 (112 kg), read-out: %VMAT2 Occupancy Putamen): 39% | receptor occupancy at 7.5 mg (Example 1B subject 2 (76 kg), read-out: %VMAT2 Occupancy Caudate): 65% | receptor occupancy at 7.5 mg (Example 1B subject 2 (76 kg), read-out: %VMAT2 Occupancy Putamen): 63% | receptor occupancy at 7.5 mg (Example 1B subject 3 (76 kg), read-out: %VMAT2 Occupancy Caudate): 41% | receptor occupancy at 7.5 mg (Example 1B subject 3 (76 kg), read-out: %VMAT2 Occupancy Putamen): 42% | receptor occupancy at 7.5 mg (Example 1B subject 4 (95 kg), read-out: %VMAT2 Occupancy Caudate): 34% | receptor occupancy at 7.5 mg (Example 1B subject 4 (95 kg), read-out: %VMAT2 Occupancy Putamen): 32% | receptor occupancy at 7.5 mg (Example 1B subject 5 (99 kg), read-out: %VMAT2 Occupancy Caudate): 36% | receptor occupancy at 7.5 mg (Example 1B subject 5 (99 kg), read-out: %VMAT2 Occupancy Putamen): 36% | receptor occupancy at 7.5 mg (Example 1B subject 6 (107 kg), read-out: %VMAT2 Occupancy Caudate): 44% | receptor occupancy at 7.5 mg (Example 1B subject 6 (107 kg), read-out: %VMAT2 Occupancy Putamen): 49% | reduction of level of blocking after 6-7 hours compared to the %VMAT2 blocking after 1-2 hours following administration (subject 1, 7.5 mg): 30% | reduction of level of blocking after 6-7 hours compared to the %VMAT2 blocking after 1-2 hours following administration (subject 2, 7.5 mg): 11%
